Legend:
Assay type in all cases: cell-based
DU4475 = experiment: CellTiter-Glo cytotoxicity, cancer cell line panel / breast cancer study; settings: Homo sapiens, DU-4475; DU4475, Breast carcinoma
Experimental: (§1) The objective of this study is to investigate potential cell killing effect of Compounds 1-15 on 3 cancer cell lines. 50% inhibition concentration (IC50) was determined for these compounds in various cancer cell lines using CellTiter-Glo™ luminescent cell viability assay at different compound concentrations. Each cell line (e.g., NCI-H209; NCI-H69; and SW1271) was treated with Compounds 1-15 and culture medium contains 0.2% [v/v] DMSO vehicle control. All the cells were cultured in the media supplemented with 10-20% fetal bovine serum at 37° C., 5% CO2 and 95% humidity.
(§2) The objective of this study is to investigate the effect of Compound 1 on cytotoxicity against 61 different types of cancer cell lines. IC50 were values were obtained using CellTiter-Glo™ as described above. Each cell line shown in Table 3 was treated with Compound 1, a standard chemotherapy drug, cisplatin, as reference control and culture medium contains 0.2% [v/v] DMSO vehicle control. All cancer cell lines were cultured in media supplemented with 10-20% fetal bovine serum at 37° C., 5% CO2 and 95% humidity.
(§3) The objective of this study is to investigate the effect of Compound 1 on cell viability of various types of breast cancer. Four different breast cancer cell lines were employed in the study. Each cell line shown in Table 5 was treated with Compound 1 and standard of care (cisplatin) and culture medium contains 0.2% [v/v] DMSO vehicle control and IC50 values were obtained as described above. The raw data values from the CellTiter-Glo™ cell viability assay expressed in relative luminescence units were normalized to the vehicle for each individual plate, and any reduction in luminescence indicated a decrease in viability (%). The data was analyzed in GraphPad PRISM using a non-linear sigmoidal plot with variable slope (asymmetric four-point linear regression), and an IC50 value for each compound was generated. The experiment tested pentamidine, compound 1, and standard-of-care control Cisplatin in full growth media for 8 days. Cells were initially treated with the test compounds on Day 0, and the cells were then replenished with fresh compound dilutions on Day 3. Pentamidine, Compound 1, and cisplatin were tested at 9 concentration points; 100, 33.33, 11.11, 3.70, 1.23, 0.41, 0.14, 0.05, and 0.02 μM (final DMSO concentration=0.5%).

HCC1954 = experiment: as above; settings: Homo sapiens; HCC1954, Ductal breast carcinoma
Experimental: as §1, §2, §3

MCF7 = experiment: as above; settings: Homo sapiens; MCF7, Invasive ductal carcinoma
Experimental: as §1, §2, §3

ZR-75-1 = experiment: as above; settings: Homo sapiens; ZR-75-1, Invasive ductal carcinoma
Experimental: as §1, §2, §3

HCCLM3 = experiment: CellTiter-Glo cell viability, liver cell lines, 8 days; settings: Homo sapiens, 192 h; HCCLM3, 8 days
Experimental: (§4) The objective of this study is to investigate the effect of Compound 1 on cell viability of various types of liver cancer. Ten (10) different liver cancer cell lines were employed in the study. Each liver cell line shown in Table 4 was treated with Compound 1, pentamidine, as reference control, a standard of care (cisplatin) and culture medium contains 0.2% [v/v] DMSO vehicle control and IC50 values were obtained as described above. The raw data values from the CellTiter-Glo™ cell viability assay expressed in relative luminescence units were normalized to the vehicle for each individual plate, and any reduction in luminescence indicated a decrease in viability (%). The data was analyzed in GraphPad PRISM using a non-linear sigmoidal plot with variable slope (asymmetric four-point linear regression), and an IC50 value for each compound was generated. The experiment tested pentamidine, compound 1, and standard-of-care control Cisplatin in full growth media for 8 days. Cells were initially treated with the test compounds on Day 0, and the cells were then replenished with fresh compound dilutions on Day 3. Pentamidine, Compound 1, and cisplatin were tested at 9 concentration points; 100, 33.33, 11.11, 3.70, 1.23, 0.41, 0.14, 0.05, and 0.02 μM (final DMSO concentration=0.5%). In particular, the IC50 values of pentamidine and Compound 1 were 0.8 and 0.6 μM in Hep3B-luc, respectively.

HEP3B2.7-1 = experiment: as above; settings: HEP3B2.7-1, Table 4
Experimental: as §4

HUH1 = experiment: as above; settings: Homo sapiens, HuH-1, 192 h; HUH1, 8 days
Experimental: as §4

HUH7 = experiment: as above; settings: Homo sapiens, Huh-7, 192 h; HUH7, 8 days
Experimental: as §4

Hep3B = experiment: as above; settings: Homo sapiens, 192 h
Experimental: as §4

HepG2 = experiment: as above; settings: Homo sapiens, 192 h; HepG2, 8 days
Experimental: as §4

MHCC97H = experiment: as above; settings: Homo sapiens, 192 h
Experimental: as §4

SK-HEP-1 = experiment: as above; settings: Homo sapiens
Experimental: as §4

## N=C(N)c1ccc(OCCCCCOc2ccc(C(=N)N)nc2)cc1 [Compound 1, 5-(5-(4-carbamimidoylphenoxy)pentyloxy)picolinimidamide]
DU4475
  IC50: 240 nM
HCC1954
  IC50: 2710 nM
MCF7
  IC50: 930 nM
ZR-75-1
  IC50: 1320 nM
HCCLM3
  IC50: 9650 nM
HEP3B2.7-1
  IC50: 320 nM
HUH1
  IC50: 2950 nM
HUH7
  IC50: 530 nM
Hep3B
  IC50: 180 nM
HepG2
  IC50: 310 nM
MHCC97H
  IC50: 5320 nM
SK-HEP-1; SK-HEP1, SK-HEP-1, first listing in Table 4
  IC50: 1400 nM
SK-HEP-1; SK-HEP1, SK-HEP-1, second listing in Table 4
  IC50: 630 nM

Reference: patent US20250388542A1, “ANALOGUES OF PENTAMIDINE AND USES THEREFOR” (Auransa Inc., priority 2018, published 2025)
